Measurements taken from US5684005A, “Pharmacologically active CNS compounds” (Glaxo Wellcome Inc., priority 1988, dated 1997).

How the values were obtained:
[1] = Duration of action / clearance from central nervous system; conditions: in words
[2] = system: release of glutamate; conditions: in words, literature; cited from earlier work
[3] = system: release of aspartate; conditions: in words, literature; cited from earlier work

Compound | duration of action [1] | inhibition of glutamate release [2] | inhibition of aspartate release [3]
COCc1nc(N)nc(N)c1-c1cc(Cl)cc(Cl)c1Cl [Example 2, 2,4-Diamino-5-(2,3,5-trichlorophenyl)-6-methoxymethyl pyrimidine] | short acting |  | 
Nc1nnc(-c2cccc(Cl)c2Cl)c(N)n1 [lamotrigine, 3,5-diamino-6-(2,3-dichlorophenyl)-1,2,4-triazine] |  | shown to inhibit the release | shown to inhibit the release
CN1CCN(c2ncc(-c3cc(Cl)cc(Cl)c3Cl)c(N)n2)CC1.CS(=O)(=O)O [Example 3, 4-Amino-2-(4-methylpiperazin-1-yl)-5-(2,3,5-trichlorophenyl) pyrimidine mesylate] | long acting |  | 
Nc1nc(N)c(-c2cc(Cl)cc(Cl)c2Cl)c(C(F)(F)F)n1 [Example 4, 2,4-Diamino-5-(2,3,5-trichlorophenyl)-6-trifluoromethyl pyrimidine] | long acting |  | 
CN1CCN(c2nc(N)c(-c3cc(Cl)cc(Cl)c3Cl)c(C(F)(F)F)n2)CC1 [Example 1, 4-Amino-2-(4-methylpiperazin-1-yl)-5-(2,3,5-trichlorophenyl)-6-trifluoromethylpyrimidine] | long acting |  | 
